Measurements taken from patent publication US10392348B2, “2-oxo-3,4-dihydroquinoline compounds as plant growth regulators” (Syngenta Participations AG, priority 2015, dated 2019).
Like-named read-outs stand apart in the source and are kept apart here.

How the values were obtained:
[1] = system: corn plants (variety NK OCTET); assay: Reduced plant water use in corn (foliar spray, repeated weighing of pots); format: in vivo; details: Zea mays, corn plants sprayed at 500 μM, average of 6 pots
Method: Compounds were tested for their effect on reducing plant water use as follows. The compounds were applied by foliar spray to 12 day old corn plants (variety NK OCTET) grown in controlled environment plant growth chambers. All compounds were applied using an emulsifiable concentrate (EC) formulation that was diluted to the desired concentrations with water containing 0.4% of the adjuvant rape seed methyl ester. Plant water use during the day was assessed by repeated weighing of the pots in which the plants were grown before and after application of the compounds at the indicated times (expressed in days after application (DAA)). The water use data before application was used to correct any differences in water use arising due to non-treatment effects (e.g. due to differences in plant size). The untransformed water use values were subjected to an analysis of covariance, fitting the effect of treatment and using the baseline water use 1 day before application as a covariate. Application of the chemicals (0 DAA) takes place approximately between 08:00 and 09:30 a.m. WU is measured within day time (chamber light is on 06:00 to 20:00) at these timepoints: 0 DAA a.m. (10:30-12:50), 0 DAA p.m. (14:00-19:50), 1 DAA a.m. (07:30-12:50), 1 DAA p.m. (14:00-19:50), 2 DAA a.m. (07:30-12:50) and 2 DAA p.m. (14:00-19:50). The cumulative total WU (0-2.5 DAA) is calculated by summing the WU data mentioned above.

[2] = system: soybean plants (variety S20-G7); assay: Reduced plant water use in soybean (foliar spray, repeated weighing of pots); format: in vivo; details: vs negative control; for change in vivo at 500 µM: Glycine max, foliar, Table B1, sprayed at 500 μM; for % WU 0 DAA AM*: 0 DAA a.m.; for % WU 0DAA PM: 0 DAA p.m.; for % WU 1DAA AM: 1 DAA a.m.; for % WU 1DAA PM: 1 DAA p.m.; for % WU 2 DAA AM: 2 DAA a.m.; for % WU 2 DAA PM: 2 DAA p.m.
Method: Compounds were tested for their effect on reducing plant water use as follows. Each compound was dissolved in a blank emulsifiable concentrate (EC) formulation that was then diluted to the desired concentration with water containing additional surfactant (EXTRAVON 1 g/20 L). The compounds were applied by foliar spray to 12 day old soybean plants (variety S20-G7) grown in controlled environment plant growth chambers. Plant water use during the day was assessed by repeated weighing of the pots in which the plants were grown before and after application of the compounds at the indicated times (expressed in days after application (DAA)). The water use data before application was used to correct any differences in water use arising due to non-treatment effects (e.g. due to differences in plant size). The untransformed water use values were subjected to an analysis of covariance, fitting the effect of treatment and using the baseline water use 1 day before application as a covariate.
The results are expressed compared to negative control treatment (diluted EC formulation without active ingredient but with EXTRAVON 1 g/20 L).
Application of the chemicals (0 DAA) takes place approximately between 08:00 and 09:30 a.m. WU is measured within day time (chamber light is on 06:00 to 20:00) at these timepoints: 0 DAA a.m. (10:30-12:50), 0 DAA p.m. (14:00-19:50), 1 DAA a.m. (7:30-12:50), 1 DAA p.m. (14:00-19:50), 2 DAA a.m. (07:30-12:50) and 2 DAA p.m. (14:00-19:50). The cumulative total WU (0-2.5 DAA) is calculated by summing the WU data mentioned above.

[3] = 0 h, water use during day time vs negative control, 0 DAA a.m. (10:30-12:50), read-out: % WU 0 DAA AM
[4] = 0 h, water use during day time vs negative control, 0 DAA p.m. (14:00-19:50), read-out: % WU 0DAA PM
[5] = 24 h, water use during day time vs negative control, 1 DAA a.m. (07:30-12:50), read-out: % WU 1DAA AM
[6] = 24 h, water use during day time vs negative control, 1 DAA p.m. (14:00-19:50), read-out: % WU 1DAA PM
[7] = 48 h, water use during day time vs negative control, 2 DAA a.m. (07:30-12:50), read-out: % WU 2 DAA AM
[8] = 48 h, water use during day time vs negative control, 2 DAA p.m. (14:00-19:50), read-out: % WU 2 DAA PM
[9] = 60 h, cumulative total water use 0-2.5 DAA (sum of the time points) vs negative control, read-out: % WU Total 0 to 2.5 DAA

## C=CCS(=O)(=O)NCc1ccc2c(c1)CCC(=O)N2CCC [Compound 3.071, N-[(2-oxo-1-propyl-3,4-dihydroquinolin-6-yl)methyl]prop-2-ene-1-sulfonamide]
[1]; [3]
  change in vivo at 500 µM: -11.2%
[1]; [4]
  change in vivo at 500 µM: -6.5%
[1]; [5]
  change in vivo at 500 µM: -4.5%
[1]; [6]
  change in vivo at 500 µM: -4.7%
[1]; [7]
  change in vivo at 500 µM: -3.5%
[1]; [8]
  change in vivo at 500 µM: -2.4%
[1]; [9]
  change in vivo at 500 µM: -4.9%

## CCCN1C(=O)CCc2cc(C3(NS(=O)(=O)c4ccccc4)CC3)ccc21 [Compound 15.001, N-[1-(2-oxo-1-propyl-3,4-dihydroquinolin-6-yl)cyclopropyl]benzenesulfonamide]
[1]; [3]
  change in vivo at 500 µM: -8.2%
[1]; [4]
  change in vivo at 500 µM: -6.5%
[1]; [5]
  change in vivo at 500 µM: -6.5%
[1]; [6]
  change in vivo at 500 µM: -3.5%
[1]; [7]
  change in vivo at 500 µM: -2.8%
[1]; [8]
  change in vivo at 500 µM: -1.8%
[1]; [9]
  change in vivo at 500 µM: -4.3%
[2]; 0 h, 0 DAA a.m. (10:30-12:50), read-out: % WU 0 DAA AM
  change in vivo at 500 µM: -27.4%
[2]; 24 h, 1 DAA a.m. (7:30-12:50), read-out: % WU 1DAA AM
  change in vivo at 500 µM: -14.9%
[2]; 24 h, 1 DAA p.m. (14:00-19:50), read-out: % WU 1DAA PM
  change in vivo at 500 µM: -13.9%
[2]; 48 h, 2 DAA a.m. (07:30-12:50), read-out: % WU 2 DAA AM
  change in vivo at 500 µM: -9.5%
[2]; 48 h, 2 DAA p.m. (14:00-19:50), read-out: % WU 2 DAA PM
  change in vivo at 500 µM: -7.2%
[2]; 60 h, cumulative total WU (0-2.5 DAA), read-out: % WU Total 0 to 2.5 DAA
  change in vivo at 500 µM: -15.1%

## CCCN1C(=O)CCc2cc(C3(NS(=O)(=O)c4ccc(F)cc4)CC3)ccc21 [Compound 15.009, 4-fluoro-N-[1-(2-oxo-1-propyl-3,4-dihydroquinolin-6-yl)cyclopropyl]benzenesulfonamide]
[1]; [3]
  change in vivo at 500 µM: -10.7%
[1]; [4]
  change in vivo at 500 µM: -7.8%
[1]; [5]
  change in vivo at 500 µM: -8.7%
[1]; [6]
  change in vivo at 500 µM: -5.8%
[1]; [7]
  change in vivo at 500 µM: -5.4%
[1]; [8]
  change in vivo at 500 µM: -5.7%
[1]; [9]
  change in vivo at 500 µM: -7.1%

## CCN1C(=O)CC(C)c2cc(CNS(=O)(=O)c3ccc(F)cc3F)ccc21 (stereo not shown) [Compound 20.006, N-[(1-ethyl-4-methyl-2-oxo-3,4-dihydroquinolin-6-yl)methyl]-2,4-difluoro-benzenesulfonamide]
[1]; [3]
  change in vivo at 500 µM: -15.5%
[1]; [4]
  change in vivo at 500 µM: -14.5%
[1]; [5]
  change in vivo at 500 µM: -13.2%
[1]; [6]
  change in vivo at 500 µM: -7%
[1]; [7]
  change in vivo at 500 µM: -5.7%
[1]; [8]
  change in vivo at 500 µM: -4.3%
[1]; [9]
  change in vivo at 500 µM: -9.4%

## CCCN1C(=O)CCc2cc(NS(=O)(=O)Cc3ccc(C)cc3)ccc21 [Quinabactin, quinabactin, reference compound]
[2]; Table B2, rate 31.25 uM
  % WU 0 DAA AM*: −0.3%
  % WU 0DAA PM: −0.3%
  % WU 1DAA AM: 0.2%
  % WU 1DAA PM: −0.1%
  % WU 2 DAA AM: −0.9%
  % WU 2 DAA PM: −1.3%
[2]; Table B2, rate 31.25 uM, cumulative total WU (0-2.5 DAA)
  % WU Total 0 to 2.5 DAA: −0.7%
[2]; Table B2, rate 125 uM
  % WU 0 DAA AM*: −15.3%
  % WU 0DAA PM: −5.7%
  % WU 1DAA AM: 1.8%
  % WU 1DAA PM: 2.9%
  % WU 2 DAA AM: 2.4%
  % WU 2 DAA PM: 1.1%
[2]; Table B2, rate 125 uM, cumulative total WU (0-2.5 DAA)
  % WU Total 0 to 2.5 DAA: −0.5%
[2]; Table B2, rate 500 uM
  % WU 0 DAA AM*: −42.0%
  % WU 0DAA PM: −41.2%
  % WU 1DAA AM: −18.6%
  % WU 1DAA PM: −10.8%
  % WU 2 DAA AM: −3.8%
  % WU 2 DAA PM: −2.9%
[2]; Table B2, rate 500 uM, cumulative total WU (0-2.5 DAA)
  % WU Total 0 to 2.5 DAA: −16.9%
